Data published in patent publication US20260242340A1, “COMPOUNDS AND METHODS FOR TREATING PROTEIN AGGREGATION DISEASES” (ACELOT, INC., priority 2023, published 2026).

Experiments:
Format in all cases: biochemical
Aβ 1-42 = target: T1, Aβ 1-42 (Homo sapiens, UniProt P05067); assay: Aβ42 thioflavin T assay; details: 50 μM compound, 5 μM Aβ 1-42, ThT RFU at 15 hours; 100% = Aβ + DMSO; read-out: Aβ42 % aggregation at 50 μM
T1 construct: The monomeric form of Aβ 1-42 (rPeptide, A1170-025) film; purchased rPeptide A1170-025
Procedure: The effect of compounds on fibril formation by Aβ 1-42 was screened using a thioflavin T (ThT) fluorescence assay in a 96-well plate format. The monomeric form of Aβ 1-42 (rPeptide, A1170-025) film was diluted with 10 mM NaOH to form a 1 mg/ml stock solution. This stock solution was then further diluted with cell culture grade water (Cytiva, SH30529.01) and 10×PBS (VWR, 97063-660) to a working concentration of 100 μM in 1×PBS on ice. Compounds were initially dissolved in 100% DMSO (MilliporeSigma, D2650) at room temperature to make a 10 mM stock and stored at −20° C. prior to the experiment. On the day of the experiment, the stock solution was diluted with 1×PBS to a concentration of 500 μM, containing 5% DMSO. The reaction mixture, containing 10 μM ThT […], 5 μM Aβ 1-42, and 1×PBS was prepared in 15 ml Falcon centrifuge tubes (Corning, 352070) and kept on ice during preparation. The reaction mixture was then dispensed into multiple wells of a 96-well half-area, low-binding polyethylene non-treated plate (Corning, 3880) with a clear bottom, at 90 μL per well. To each well, 10 μL of 500 μM compound stock was added, with three replicates per compound. To account for the presence of DMSO, 5% DMSO in 1×PBS was used as the vehicle control. The positive control consisted of 10 μM ThT, 5 μM Aβ 1-42, and 0.5% DMSO in 1×PBS, while the negative control consisted of 10 μM ThT and 0.5% DMSO in 1×PBS. The plates were sealed with polyester sealing tape (VWR, 89134-430) to prevent evaporation and then placed in a plate reader (Molecular Devices SpectraMax ID5) at 37° C. without agitation. ThT fluorescence was measured through the bottom of the plate using 440- and 480-nm excitation and emission filters for 15 hours at 0.5-hour intervals. Each well was scanned at 5 points with a 1.25 mm distance between points. The relative fluorescence unit (RFU) at 15 hours was used to rank the percent of aggregation for all tested compounds and controls.

[1] = target: TDP-43 peptide (amino acids 307-319) (Homo sapiens, UniProt Q13148); assay: TDP-43 thioflavin T assay; details: ThT RFU at 15 hours; 100% = TDP-43 + DMSO
Procedure: The effect of compounds on fibril formation by TDP-43 peptide (amino acids 307-319) was screened using a thioflavin T (ThT) fluorescence assay in a 96-well plate format. The monomeric form of TDP-43 307-319 was stored in HFIP at −20° C. in 32 μL vials and then thawed on ice. After thawing a stock aliquot on ice, 16 μL of HFIP and 432 μL 100 mM ammonium acetate was added. This mix was pipetted three times. Three such prepared aliquots were combined to create a master mix. 400 μM of ThT stock was prepared by dissolving 31.8 mg ThT in 10 mL Milli-Q water to make […] stock. The 10 mM ThT stock was then diluted to 400 μM with Milli-Q water and stored at −20° C. until use. 20 μL aliquots of compounds were used as initial starting material. 98 μL of master mix was then added to each well of 96-well plate, and then 2 μL of compounds was added to each well testing a compound. The plate was spun at 4700×rpm to remove bubbles at 4° C., and then the plate measurements were collected. ThT fluorescence was measured through the bottom of the plate using 440- and 480-nm excitation and emission filters for 15 hours at 0.5-hour intervals. Each well was scanned at 5 points with a 1.25 mm distance between points. The relative fluorescence unit (RFU) at 15 hours was used to rank the percent of aggregation for all tested compounds.

alpha-synuclein = target: T2, alpha-synuclein (Homo sapiens, UniProt P37840); assay: Alpha-synuclein thioflavin T assay; details: 250 μM compound on pre-formed aggregates of 50 μM alpha-synuclein, 24 hours; 100% = alpha synuclein + DMSO
T2 construct: purchased Proteos RP-003
Procedure: Recombinant alpha-synuclein monomeric protein was procured from Proteos (catalog no. RP-003, 10 mg/ml or 700 μM concentration). Prior to aggregation, the protein was centrifuged at 10,000 rpm for 5 minutes to remove any pre-existing aggregates. The stock solution was then diluted to 50 μM concentration in filtered 1×PBS and allowed to aggregate with continuous shaking at 1000 rpm on a thermomixer for 96 hours at 37° C. After 96 hours, the ThT fluorescence was checked for the sample to confirm aggregate formation using ThT, a well-known amyloid marker dye. The ThT active aggregates were then used for high-throughput small molecule inhibitor screening. For screening small molecule disaggregators, 10 mM DMSO stock solutions of small molecules were diluted to 250 μM in the reaction mix containing 20 μM ThT and aggregates formed by 50 μM alpha-synuclein. As a positive/vehicle control, 100% DMSO stock was diluted to 2.5% to match the DMSO in the small molecule conditions. ThT fluorescence assay was performed for 24 hours with 3 replicates per sample in a 384 well plate (Corning low volume black/clear flat bottom) on a microplate reader (Molecular Devices SpectraMax iD5 or BioTek Agilent Synergy Neo2) using excitation wavelength of 440 nm and emission wavelength of 490 nm. The temperature was maintained at 37° C. and the plate was continuously shaken throughout the measurement. All data were plotted and analyzed in GraphPad Prism.

T1 sequence (P05067 672-713 limits assumed): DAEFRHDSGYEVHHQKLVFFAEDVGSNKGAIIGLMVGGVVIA

Compound	activity at 50 µM (Aβ 1-42) [%]	% aggregation TDP-43 ThT at 50 μM TDP-43 [1] [%]	% alpha synuclein aggregation as measured on ThT (alpha-synuclein) [%]
CC(=O)Nc1ccc2c(c1)CCN(CCc1cccc(Cl)c1)C2 [Compound 1]	60.9	77.4	77.8
CC(=O)Nc1ccc2c(c1)CCN(CCc1ccc(F)c(Cl)c1)C2 [Compound 2]	73.5	80.7	95.6
